The values below come from ChEMBL document CHEMBL1201862, “PubChem BioAssay data set” (2004).

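48-hour exposure; five concentrations; linearly interpolated endpoints. Here, GI50 denotes the concentration required for 50% inhibition of growth.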 Activity calls are given as the source filed them. No stated cut-off is given here; in the data, active = GI50 up to about 1.1 µM and inactive = higher.

Among the test systems are CAKI-1; DU-145; HCT-15; HL-60; HT-29; MCF7; MDA-MB-435; MDA-N; NCI-H226; NCI-H460; OVCAR-3; OVCAR-8; RPMI-8226; SF-268; SK-MEL-28; SK-MEL-5; SK-OV-3; SNB-75; UACC-257; UACC-62.
What all share (test): inhibition of tumour cell growth, NCI panel, 48 h

Take `Cc1ccc([N+](=O)[O-])cc1S(=O)(=O)Nc1ccc(C2=NOC(c3ccccc3O)C2)cc1` (stereo not given): the GI50 with CAKI-1 is 9.42 µM (inactive); in the assay on DU-145, 13.3 µM (inactive); with HCT-15 it was 3.44 µM; with HL-60, 2.17 µM (inactive); with HT-29 it was 4.61 µM (inactive); in the assay on MCF7 it was 3.33 µM (inactive). Moreover, the GI50 in the assay on MDA-MB-435 is 1.01 µM (active); in the assay on MDA-N, 1.56 µM (inactive); with NCI-H226 it was 5.82 µM (inactive); with NCI-H460, 4.09 µM (inactive); in the assay on OVCAR-3, 3.72 µM (inactive); in the assay on OVCAR-8 it was 31.2 µM (inactive). The GI50 in the assay on RPMI-8226 was 4.26 µM (inactive); in the assay with SF-268, 8.61 µM (inactive); with SK-MEL-28 it was 12.8 µM (inactive); with SK-MEL-5 it was 4.68 µM (inactive); in the assay with SK-OV-3, 15.3 µM (inactive); with SNB-75, 3.6 µM (inactive). Also, the GI50 with UACC-257 was 5.97 µM (inactive); in the assay on UACC-62, 2.97 µM (inactive).

As to `c1ccc(NNC2=NCCN2)cc1`, the GI50 was > 100 µM (inactive) with CAKI-1; > 100 µM (inactive) in the assay with DU-145; greater than 100 µM in the assay with HCT-15; > 100 µM (inactive) with HL-60; > 100 µM (inactive) with HT-29; > 100 µM (inactive) in the assay on MCF7. In addition, the GI50 in the assay with MDA-MB-435, in the assay on MDA-N, in the assay with NCI-H226, in the assay on NCI-H460, in the assay on OVCAR-3 and in the assay with OVCAR-8 was > 100 µM (inactive) throughout. Further, the GI50 with RPMI-8226, with SF-268, in the assay with SK-MEL-28, with SK-MEL-5, in the assay on SK-OV-3 and with SNB-75 was > 100 µM (inactive) in each case. For the same compound, the GI50 in the assay with UACC-257 and in the assay with UACC-62 was > 100 µM (inactive) in each case.

`C=C1CC(COc2ccc3ccc(=O)oc3c2)(c2ccccc2)OC1=O` (stereo not given): the GI50 was 0.885 µM (active) with CAKI-1; 2.77 µM (inactive) with DU-145; 1.87 µM in the assay on HCT-15; 0.0803 µM (active) in the assay on HL-60; 0.627 µM (active) in the assay on HT-29; 1.26 µM (inactive) in the assay with MCF7. Also, the GI50 was 2.61 µM (inactive) with MDA-MB-435; 1.11 µM (active) with MDA-N; 5.3 µM (inactive) in the assay with NCI-H226; 10.5 µM (inactive) in the assay with NCI-H460; 1.61 µM (inactive) in the assay with OVCAR-3; 2.21 µM (inactive) in the assay on OVCAR-8. Also, the GI50 is 0.143 µM (active) with RPMI-8226; 3.27 µM (inactive) with SF-268; 2.3 µM (inactive) with SK-MEL-28; 1.47 µM (inactive) with SK-MEL-5; 5.02 µM (inactive) in the assay with SK-OV-3; 5.92 µM (inactive) in the assay on SNB-75. For the same compound, the results for the GI50 with UACC-257 and in the assay on UACC-62 were 1.71 µM (inactive) and 1.45 µM (inactive), respectively.

On to `Cc1ccccc1OC(C)C(=O)NN1C(=O)CC(=O)NC1=S` (stereo not given), for which the GI50 was > 100 µM (inactive) in the assay with CAKI-1; > 100 µM (inactive) in the assay on DU-145; greater than 100 µM with HCT-15; > 100 µM (inactive) with HL-60; > 100 µM (inactive) with HT-29; 47.4 µM (inactive) with MCF7. For the same compound, the GI50 in the assay on MDA-MB-435 was > 100 µM (inactive); with MDA-N it was > 100 µM (inactive); in the assay on NCI-H226 it was 70.5 µM (inactive); in the assay on NCI-H460 it was > 100 µM (inactive); in the assay with OVCAR-3 it was > 100 µM (inactive); in the assay on OVCAR-8, > 100 µM (inactive). Also, the GI50 in the assay on RPMI-8226, in the assay on SF-268, in the assay with SK-MEL-28, with SK-MEL-5, in the assay on SK-OV-3 and in the assay on SNB-75 was > 100 µM (inactive) in each case. For the same compound, the GI50 in the assay on UACC-257 is > 100 µM (inactive); in the assay with UACC-62, 80.5 µM (inactive).

With `Cc1cccc2[nH]c3c(c(O)cc4[nH]c5cccc(C)c5c(=O)c43)c(=O)c12`, the GI50 in the assay with CAKI-1 was > 10 µM (inactive); with DU-145, 5.98 µM (inactive); in the assay with HCT-15, greater than 10 µM; with HL-60 it was 3.33 µM (inactive); in the assay with HT-29, 3.85 µM (inactive); in the assay on MCF7 it was > 10 µM (inactive). For the same compound, the GI50 with MDA-MB-435 is 4.89 µM (inactive); with MDA-N it was > 10 µM (inactive); with NCI-H226, 5.16 µM (inactive); with NCI-H460 it was 5.57 µM (inactive); with OVCAR-3, 6 µM (inactive); with OVCAR-8, 6.11 µM (inactive). Besides, the GI50 with RPMI-8226 is > 10 µM (inactive); with SF-268, > 10 µM (inactive); in the assay on SK-MEL-28, > 10 µM (inactive); in the assay on SK-MEL-5, 9.04 µM (inactive); with SK-OV-3, > 10 µM (inactive); in the assay on SNB-75, > 10 µM (inactive). Moreover, the GI50 in the assay on UACC-257 is 4.55 µM (inactive); in the assay on UACC-62 it was > 10 µM (inactive).

Consider `Brc1ccc2c(-c3csc(-c4c[nH]c5ccc(Br)cc45)n3)c[nH]c2c1`, for which the GI50 was 3.01 µM (inactive) in the assay on CAKI-1; 3.86 µM (inactive) in the assay with DU-145; 3.38 µM in the assay with HCT-15; 5.22 µM (inactive) in the assay on HL-60; 1.76 µM (inactive) in the assay with HT-29; 3.82 µM (inactive) in the assay with MCF7. Besides, the GI50 in the assay on MDA-MB-435 was 4.46 µM (inactive); in the assay on MDA-N, 5.15 µM (inactive); with NCI-H226 it was 3.42 µM (inactive); in the assay on NCI-H460 it was 2.44 µM (inactive); in the assay with OVCAR-3, 6 µM (inactive); in the assay on OVCAR-8, 5.52 µM (inactive). The GI50 with RPMI-8226 was 3.44 µM (inactive); in the assay on SF-268, 3.6 µM (inactive); with SK-MEL-28 it was 7.59 µM (inactive); in the assay with SK-MEL-5 it was 3.65 µM (inactive); in the assay on SK-OV-3 it was 11.2 µM (inactive); with SNB-75 it was 10.2 µM (inactive). Also, the GI50 is 7.94 µM (inactive) in the assay on UACC-257 and 3.18 µM (inactive) in the assay on UACC-62.

For `C=C[C@@]1(C)CC(=O)[C@]2(O)[C@@]3(C)[C@@H](O)CCC(C)(C)[C@@H]3[C@H](O)[C@@H](OC(C)=O)[C@@]2(C)O1`, the GI50 in the assay with CAKI-1 was 27.1 µM (inactive); in the assay on DU-145 it was > 100 µM (inactive); in the assay with HCT-15, greater than 100 µM; in the assay on HL-60, 48.6 µM (inactive); with HT-29 it was 68.7 µM (inactive); with MCF7, 22.1 µM (inactive). The GI50 with MDA-MB-435, in the assay with MDA-N, with NCI-H226, in the assay with NCI-H460, with OVCAR-3 and with OVCAR-8 was > 100 µM (inactive) each time. Further, the GI50 with RPMI-8226 is 18.7 µM (inactive); with SF-268, > 100 µM (inactive); with SK-MEL-28, > 100 µM (inactive); in the assay with SK-MEL-5, > 100 µM (inactive); with SK-OV-3, 95.1 µM (inactive); in the assay with SNB-75 it was > 100 µM (inactive). Further, the GI50 with UACC-257 and with UACC-62 was > 100 µM (inactive) each time.
